We go through four compounds from US7579329B2, “P450RAI-2 (P450 cytochrome 26B), encoding nucleic acid molecules and methods and uses thereof” (Cytochroma Inc., priority 1999, dated 2009).

For experiment [1], the target named is T1, P450RAI-1 (Homo sapiens, UniProt O43174).
T1 sequence (O43174 1-497): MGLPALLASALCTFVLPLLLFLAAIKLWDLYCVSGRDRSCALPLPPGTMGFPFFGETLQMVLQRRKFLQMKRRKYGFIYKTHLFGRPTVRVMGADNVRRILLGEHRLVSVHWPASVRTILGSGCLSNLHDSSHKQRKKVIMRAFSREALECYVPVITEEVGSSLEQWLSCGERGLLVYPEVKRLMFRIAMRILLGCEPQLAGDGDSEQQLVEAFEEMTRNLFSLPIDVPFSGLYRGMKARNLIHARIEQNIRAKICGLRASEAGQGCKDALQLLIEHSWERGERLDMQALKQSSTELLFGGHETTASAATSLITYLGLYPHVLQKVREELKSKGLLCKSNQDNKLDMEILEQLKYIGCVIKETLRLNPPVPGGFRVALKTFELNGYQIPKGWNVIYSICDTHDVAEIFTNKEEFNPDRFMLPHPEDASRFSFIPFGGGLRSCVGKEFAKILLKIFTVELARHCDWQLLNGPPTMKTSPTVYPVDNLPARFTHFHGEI
The experiment is described as follows: Competitive inhibition of [3H]all-trans-RA metabolism in COS-1 cells transfected with pcDNA3.1-P450RAI-1. It counts as cell-based. The arrangement: expressed in transfected cells; host or cells: COS-1 (African green monkey kidney), transient. The following applies: COS-1 cells expressing P450RAI-1, 2 nM [3H]all-trans-RA. How it is done:
COS-1 cells were transfected with either pcDNA3.1-P450RAI-1 or pcDNA3.1-P450RAI-2 in 6-well tissue culture plates as described above. 48 hours post-transfection cells were harvested, pooled, washed with DMEM medium and replated into duplicate 48-well plates with 5×10^5 cells per well.

Experiment [2] concerns the target T2, P450RAI-2 (Homo sapiens, UniProt Q9NR63).
T2 sequence (Q9NR63 1-512): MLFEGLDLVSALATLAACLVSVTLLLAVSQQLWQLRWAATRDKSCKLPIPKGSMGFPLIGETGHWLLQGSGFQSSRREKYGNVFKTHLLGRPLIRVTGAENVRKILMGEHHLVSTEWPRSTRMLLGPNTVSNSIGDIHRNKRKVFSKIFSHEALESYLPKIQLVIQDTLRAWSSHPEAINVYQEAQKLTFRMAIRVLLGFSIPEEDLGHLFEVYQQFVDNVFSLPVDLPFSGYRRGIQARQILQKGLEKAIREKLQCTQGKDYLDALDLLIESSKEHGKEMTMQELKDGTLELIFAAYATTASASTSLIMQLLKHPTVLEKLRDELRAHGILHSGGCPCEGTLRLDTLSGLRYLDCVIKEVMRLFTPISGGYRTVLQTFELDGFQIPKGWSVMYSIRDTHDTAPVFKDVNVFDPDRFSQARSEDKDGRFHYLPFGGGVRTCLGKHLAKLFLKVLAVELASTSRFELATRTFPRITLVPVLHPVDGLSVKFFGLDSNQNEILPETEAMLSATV
Description: Competitive inhibition of [3H]all-trans-RA metabolism in COS-1 cells transfected with pcDNA3.1-P450RAI-2. The following applies: COS-1 cells expressing P450RAI-2, 2 nM [3H]all-trans-RA. It counts as cell-based. Set-up: The full-length human P450RAI-2 cDNA was cloned into the eukaryotic expression vector pcDNA 3.1; expressed in transfected cells; host or cells: COS-1 (African green monkey kidney), transient. The text has this: COS-1 cells were transfected with either pcDNA3.1-P450RAI-1 or pcDNA3.1-P450RAI-2 in 6-well tissue culture plates as described above.

The test system of experiment [3] is P450RAI-2. The experiment is described as follows: P450RAI-2 expression in RAFT and psoriasis biopsy samples (Northern blot, RT-PCR). Type of experiment: cell-based, human. How it is done: Total RNA aliquots (10 μg) were electrophoresed on a 1.0% formaldehyde-agarose gel and a northern blot performed. The gel was photographed under ultraviolet light and then blotted on Hybond ECL nitrocellulose membrane (Amersham Pharmacia Biotech, UK) and fixed to the membrane by baking at 80° C. for 2 hours under vacuum. […] Three individual cDNA fragments were labeled with α-[^32P]dATP using the Prime-A-Gene Labeling System (Promega, WI). The probes were as follows; P450RAI-1 762-1217bp of SEQ ID NO:13, full length P450RAI-2 SEQ ID NO:4 and a human glyceraldehyde-3-phosphate dehydrogenase (GAPDH) PCR fragment. The blot was hybridized with P450RAI-2, washed two times for 5 minutes in 2×SSPE, 0.1% SDS at room temperature, then washed once at 65° C. for 10 minutes in 1×SSPE, 0.1% SDS and a final wash for 15 minutes at 65° C. in 0.1×SSPE, 0.1% SDS. The blot was exposed at −70° C. for 48 hours to Kodak X-Omat AR film (Eastman Kodak Company, NY). […] The blot was stripped by washing two times for 30 minutes in boiling 0.5% SDS and exposed to film overnight to ensure proper removal of probe. The above protocol was repeated for P450RAI-1 and GAPDH. The P450RAI-1 and GAPDH blots were exposed for 96 and 4 hours respectively.
The final primer concentrations were 45 μM for the P450RAI-1 and P450RAI-2 primers and 11.25 μM for the GAPDH-specific primers. Two separate sets of reactions were performed using the primer sets, P450RAI-1/GAPDH and P450RAI-2/GAPDH. […] The P450RAI-1, P450RAI-2 and GAPDH upstream and downstream amplification primers sets were 5′-[…]-3′ (SEQ ID NO: 35) and 5′-[…]-3′ (SEQ ID NO: 36), 5′-[…]-3′ (SEQ ID NO: 37) and 5′-[…]-3′ (SEQ ID NO: 38), 5′-[…]-3′ (SEQ ID NO: 39) and 5′-[…]-3′ (SEQ ID NO: 40) respectively. […] Both the Psoriasis samples show PCR products corresponding to P450RAI-2.

Experiment [4] concerns P450RAI-2 transcripts. Description: Induction of P450RAI-2 transcripts in human cell lines (Northern blot, RT-PCR). Type of experiment: cell-based. The following applies: MCF-7 cells, 10^-6 M retinoid, 12 hours, northern blot. From the text: HPK1a-ras (ras-transformed human keratinocyte), COS-1 (African green monkey kidney and V79 cells (Chinese Hamster lung) were maintained in DMEM supplemented with 10% FBS (5% for V79). WTE (human non-small cell lung carcinoma and SW900 (human non-small cell lung carcinoma) cells were maintained in RPMI supplemented with 10% FBS. SK-Luci-6 (human non-small cell lung carcinoma) and SK-MES-1 (human non-small cell lung carcinoma) cells in RPMI with 5% FBS. NB4 (human acute prmyelocytic leukemia-serived) cells were maintained in RPMI supplemented with 10% FBS and gentamicin ([…]) HeLa cells (human cervical carcinoma) were maintained in MEM supplemented with 10% FBS. Previous cell lines were supplemented with penicillin (50 units/ml) streptomycin (50 ug/ml) and fungizone (0.1% final concentration). MCF-7 cells (human breast epithelial adenocarcinoma) were grown in MEM supplemented with 10% FBS, insulin (10 ng/ml), sodium pyruvate (0.5 mM), non-essential amino acids (100 nM), L-glutamine (2 mM), penicillin (5 ug.ml), streptomycin (5 ug/ml), fungizone (200 ng/ml), and gentamicin ([…]). All reagents were supplied by Life Technologies, NY. Cells lines were maintained at 37° C. in an atmosphere of 5% CO2 and 95% air.
Gels were photographed under ultraviolet light and then blotted onto Hybond ECL nitrocellulose membrane (Amersham Pharmacia Biotech, UK) and fixed to the membrane by baking at 80° C. for 2 hours under vacuum. […] Full length P450RAI-1 and P450RAI-2 cDNA were labeled with α-[^32P]dATP using Prime-A-Gene Labeling System (Promega, WI). The blot was washed two times for 15 minutes in 2×SSC, 0.1% SDS at room temperature then for 15 minutes at 60° C. in 0.1×SSC, and 0.1% SDS and exposed at −70° C. for 19 hours to Kodak X-Omat AR film (Eastman Kodak Company, NY).
The regulation of P450RAI-2 expression by various retinoids was checked in three different human cell lines, SKMES, CALU-1 and MCF-7. […] The blot was washed as follows: 2×SSPE & 0.1% SDS two washes of 5 minutes each; 1×SSPE & 0.1% SDS one wash of 15 minutes at 65° C.; 0.1×SSPE & 0.1×SDS one wash of 15 minutes at 65° C.
The blot was washed as follows: 2×SSC & 0.1% SDS two washes of 5 minutes each at room temperature; 1×SSC & 0.1% SDS one wash of 15 minutes at 65° C.; 0.1×SSC & 0.1% SDS three washes of 15 minutes each at 65° C.
The blot was washed as follows: 2×SSPE & 0.1% SDS two washes of 5 minutes each; 1×SSPE & 0.1% SDS one wash of 15 minutes at 65° C.; 0.1×SSPE & 0.1×SDS one wash of 15 minutes at 65° C.
The final primer concentrations were 45 μM for the P450RAI-2 primers and 11.25 μM for the GAPDH-specific primers.

Molecules are shown by their SMILES.

For the compound `CC1=C(/C=C/C(C)=C/C=C/C(C)=C/CO)C(C)(C)CCC1` [Retinol, retinol], the “Effectiveness as competitor of all-trans-RA metabolism” value (shortened to “Effectiveness as competitor”) in experiment [1] and in experiment [2] was “less effective competitors” throughout.
For `CCOC(=O)c1ccc(C#Cc2ccc3c(c2)C(C)(C)CCS3)nc1` [Tazarotene], the P450RAI-2 expression entry in experiment [3] (Day 14 Psoriasis Biopsy sample, northern blot) is listed as “appears to also be expressed”; in experiment [3] (RAFT sample, RT-PCR), “expression of P450RAI-2”; in experiment [3] (RAFT sample, northern blot), “induced”.
Take `CC1=C(/C=C/C(C)=C\C=C\C(C)=C\C(=O)O)C(C)(C)CCC1` [9-cis-RA, 9-cis retinoic acid]: the “Induction of P450RAI-2 expression” value in experiment [4] was “not clear”. Also, the “Effectiveness as competitor” value in experiment [1] and in experiment [2] was “less effective than all-trans-RA” throughout.
Regarding `CC1=C(/C=C/C(C)=C/C=C/C(C)=C/C=O)C(C)(C)CCC1` [retinal], the “Effectiveness as competitor” value in experiment [1] and in experiment [2] was “less effective competitors” in each case.
